Data taken from patent US20260240858A1, “ORAL FORMULATIONS, METHODS OF MANUFACTURE AND USES THEREOF” (Agency For Science, Technology And Research, priority 2019, published 2026).
Where two headings read alike, the source gives them in different places.

Legend:
[1] = Solubility of compound of Formula (I) in water, buffers and surfactant solutions; type: physicochemical
Procedure: In water, compound of Formula (I) has a solubility of about 6 μg/mL. At pH 6, the solubility is about 5 μg/mL.

Moisture sorption = type: physicochemical; conditions: at above 90% RH
[2] = Particle size by dynamic light scattering; type: physicochemical
[3] = Degradation in water with and without SLS; type: physicochemical; conditions: after 24 h at 25° C.
[4] = Permeability of compound of Formula (I)
[5] = Flow properties (bulk density, tapped density, Carr's index); type: physicochemical; conditions: API alone
From the text: Magnesium stearate was included to prevent sticking of the blend to the encapsulator contact parts (Torpac).

SMILES: Cn1c(=O)c2c(ncn2CC(=O)Nc2ccc(-c3ccccc3)nn2)n(C)c1=O [compound of Formula (I)]
- solubility ([1]; 2% w/v SLS in water, pH 8.82, aqueous with cosolvent or surfactant or cyclodextrin, thermodynamic from solid, 2% w/v SLS is water, pH after equilibration 8.82, read-out: Solubility Sample-1): 458 µg/mL
- solubility ([1]; 2% w/v SLS in water, pH 8.82, aqueous with cosolvent or surfactant or cyclodextrin, thermodynamic from solid, 2% w/v SLS is water, pH after equilibration 8.82, read-out: Solubility Sample-2): 429 µg/mL
- solubility ([1]; 2% w/v Tween 80 in pH 3.0 buffer, pH 3, aqueous with cosolvent or surfactant or cyclodextrin, thermodynamic from solid, 2% w/v Tween 80 in pH 3.0 buffer, pH after equilibration 3.16, read-out: Solubility Average (n = 2)): 25.2 µg/mL
- solubility ([1]; 2% w/v Tween 80 in pH 3.0 buffer, pH 3, aqueous with cosolvent or surfactant or cyclodextrin, thermodynamic from solid, 2% w/v Tween 80 in pH 3.0 buffer, pH after equilibration 3.16, read-out: Solubility Sample-1): 23.8 µg/mL
- solubility ([1]; 2% w/v Tween 80 in pH 3.0 buffer, pH 3, aqueous with cosolvent or surfactant or cyclodextrin, thermodynamic from solid, 2% w/v Tween 80 in pH 3.0 buffer, pH after equilibration 3.16, read-out: Solubility Sample-2): 26.7 µg/mL
- solubility ([1]; 2% w/v Tween 80 in water, pH 7.72, aqueous with cosolvent or surfactant or cyclodextrin, thermodynamic from solid, 2% w/v Tween 80 in water, pH after equilibration 7.72, read-out: Solubility Average (n = 2)): 22.8 µg/mL
- solubility ([1]; 2% w/v Tween 80 in water, pH 7.72, aqueous with cosolvent or surfactant or cyclodextrin, thermodynamic from solid, 2% w/v Tween 80 in water, pH after equilibration 7.72, read-out: Solubility Sample-1): 22.4 µg/mL
- solubility ([1]; 2% w/v Tween 80 in water, pH 7.72, aqueous with cosolvent or surfactant or cyclodextrin, thermodynamic from solid, 2% w/v Tween 80 in water, pH after equilibration 7.72, read-out: Solubility Sample-2): 23.2 µg/mL
- solubility ([1]; 5% w/v PVP K 30 in pH 1.2 buffer, pH 1.2, aqueous with cosolvent or surfactant or cyclodextrin, thermodynamic from solid, 5% w/v PVP K 30 in pH 1.2 buffer, pH after equilibration 1.25, read-out: Solubility Average (n = 2)): 35 µg/mL
- solubility ([1]; 5% w/v PVP K 30 in pH 1.2 buffer, pH 1.2, aqueous with cosolvent or surfactant or cyclodextrin, thermodynamic from solid, 5% w/v PVP K 30 in pH 1.2 buffer, pH after equilibration 1.25, read-out: Solubility Sample-1): 34.8 µg/mL
- solubility ([1]; 5% w/v PVP K 30 in pH 1.2 buffer, pH 1.2, aqueous with cosolvent or surfactant or cyclodextrin, thermodynamic from solid, 5% w/v PVP K 30 in pH 1.2 buffer, pH after equilibration 1.25, read-out: Solubility Sample-2): 35.2 µg/mL
- solubility ([1]; 5% w/v PVP K 30 in pH 3.0 buffer, pH 3, aqueous with cosolvent or surfactant or cyclodextrin, thermodynamic from solid, 5% w/v PVP K 30 in pH 3.0 buffer, pH after equilibration 3.12, read-out: Solubility Average (n = 2)): 17.9 µg/mL
- solubility ([1]; 5% w/v PVP K 30 in pH 3.0 buffer, pH 3, aqueous with cosolvent or surfactant or cyclodextrin, thermodynamic from solid, 5% w/v PVP K 30 in pH 3.0 buffer, pH after equilibration 3.12, read-out: Solubility Sample-1): 19.9 µg/mL
- solubility ([1]; 5% w/v PVP K 30 in pH 3.0 buffer, pH 3, aqueous with cosolvent or surfactant or cyclodextrin, thermodynamic from solid, 5% w/v PVP K 30 in pH 3.0 buffer, pH after equilibration 3.12, read-out: Solubility Sample-2): 15.8 µg/mL
- solubility ([1]; 5% w/v PVP K 30 in water, pH 3.96, aqueous with cosolvent or surfactant or cyclodextrin, thermodynamic from solid, 5% w/v PVP K 30 in water, pH after equilibration 3.96, read-out: Solubility Average (n = 2)): 15.8 µg/mL
- solubility ([1]; 5% w/v PVP K 30 in water, pH 3.96, aqueous with cosolvent or surfactant or cyclodextrin, thermodynamic from solid, 5% w/v PVP K 30 in water, pH after equilibration 3.96, read-out: Solubility Sample-1): 18.1 µg/mL
- solubility ([1]; 5% w/v PVP K 30 in water, pH 3.96, aqueous with cosolvent or surfactant or cyclodextrin, thermodynamic from solid, 5% w/v PVP K 30 in water, pH after equilibration 3.96, read-out: Solubility Sample-2): 13.5 µg/mL
- solubility ([1]; 20% w/v SLS in pH 1.2 buffer, pH 1.2, aqueous with cosolvent or surfactant or cyclodextrin, thermodynamic from solid, 20% w/v SLSixpB 1.2 buffer, pH after equilibration 1.33, read-out: Solubility Average (n = 2)): 2020 µg/mL
- solubility ([1]; 20% w/v SLS in pH 1.2 buffer, pH 1.2, aqueous with cosolvent or surfactant or cyclodextrin, thermodynamic from solid, 20% w/v SLSixpB 1.2 buffer, pH after equilibration 1.33, read-out: Solubility Sample-1): 1860 µg/mL
- solubility ([1]; 20% w/v SLS in pH 1.2 buffer, pH 1.2, aqueous with cosolvent or surfactant or cyclodextrin, thermodynamic from solid, 20% w/v SLSixpB 1.2 buffer, pH after equilibration 1.33, read-out: Solubility Sample-2): 2170 µg/mL
- solubility ([1]; 28% w/v SLS in pH 3.0 buffer, pH 3, aqueous with cosolvent or surfactant or cyclodextrin, thermodynamic from solid, 28% w/v SL.S in pH 3.0 baffer, pH after equilibration 2.95, read-out: Solubility Average (n = 2)): 404 µg/mL
- solubility ([1]; 28% w/v SLS in pH 3.0 buffer, pH 3, aqueous with cosolvent or surfactant or cyclodextrin, thermodynamic from solid, 28% w/v SL.S in pH 3.0 baffer, pH after equilibration 2.95, read-out: Solubility Sample-1): 394 µg/mL
- solubility ([1]; 28% w/v SLS in pH 3.0 buffer, pH 3, aqueous with cosolvent or surfactant or cyclodextrin, thermodynamic from solid, 28% w/v SL.S in pH 3.0 baffer, pH after equilibration 2.95, read-out: Solubility Sample-2): 415 µg/mL
- solubility ([1]; 29% w/v Tween 80 in pH 1.2 buffer, pH 1.2, aqueous with cosolvent or surfactant or cyclodextrin, thermodynamic from solid, 29% w/v Tween 80 in pH 1.2 buffer, pH after equilibration 1.25, read-out: Solubility Average (n = 2)): 37.2 µg/mL
- solubility ([1]; 29% w/v Tween 80 in pH 1.2 buffer, pH 1.2, aqueous with cosolvent or surfactant or cyclodextrin, thermodynamic from solid, 29% w/v Tween 80 in pH 1.2 buffer, pH after equilibration 1.25, read-out: Solubility Sample-1): 37.3 µg/mL
- solubility ([1]; 29% w/v Tween 80 in pH 1.2 buffer, pH 1.2, aqueous with cosolvent or surfactant or cyclodextrin, thermodynamic from solid, 29% w/v Tween 80 in pH 1.2 buffer, pH after equilibration 1.25, read-out: Solubility Sample-2): 37.1 µg/mL
- solubility ([1]; 50% w/v Poloxamer 188 in pH 1.2 buffer, pH 1.2, aqueous with cosolvent or surfactant or cyclodextrin, thermodynamic from solid, 50% w/v Poloxamer 188 in pH 1.2 buffer, pH after equilibration 1.25, read-out: Solubility Average (n = 2)): 35.5 µg/mL
- solubility ([1]; 50% w/v Poloxamer 188 in pH 1.2 buffer, pH 1.2, aqueous with cosolvent or surfactant or cyclodextrin, thermodynamic from solid, 50% w/v Poloxamer 188 in pH 1.2 buffer, pH after equilibration 1.25, read-out: Solubility Sample-1): 35.6 µg/mL
- solubility ([1]; 50% w/v Poloxamer 188 in pH 1.2 buffer, pH 1.2, aqueous with cosolvent or surfactant or cyclodextrin, thermodynamic from solid, 50% w/v Poloxamer 188 in pH 1.2 buffer, pH after equilibration 1.25, read-out: Solubility Sample-2): 35.4 µg/mL
- solubility ([1]; 50% w/v Poloxamer 188 in water, pH 7.23, aqueous with cosolvent or surfactant or cyclodextrin, thermodynamic from solid, 50% w/v Poloxamer 188 in water, pH after equilibration 7.23, read-out: Solubility Average (n = 2)): 9.63 µg/mL
- solubility ([1]; 50% w/v Poloxamer 188 in water, pH 7.23, aqueous with cosolvent or surfactant or cyclodextrin, thermodynamic from solid, 50% w/v Poloxamer 188 in water, pH after equilibration 7.23, read-out: Solubility Sample-1): 10.9 µg/mL
- solubility ([1]; 50% w/v Poloxamer 188 in water, pH 7.23, aqueous with cosolvent or surfactant or cyclodextrin, thermodynamic from solid, 50% w/v Poloxamer 188 in water, pH after equilibration 7.23, read-out: Solubility Sample-2): 8.39 µg/mL
- solubility ([1]; 59% w/v Poloxamer 188 in pH 3.0 buffer, pH 3, aqueous with cosolvent or surfactant or cyclodextrin, thermodynamic from solid, 59% w/v Poloxamer 188 in pH 3.0 buffer, pH after equilibration 3.30, read-out: Solubility Average (n = 2)): 18.3 µg/mL
- solubility ([1]; 59% w/v Poloxamer 188 in pH 3.0 buffer, pH 3, aqueous with cosolvent or surfactant or cyclodextrin, thermodynamic from solid, 59% w/v Poloxamer 188 in pH 3.0 buffer, pH after equilibration 3.30, read-out: Solubility Sample-1): 18.7 µg/mL
- solubility ([1]; 59% w/v Poloxamer 188 in pH 3.0 buffer, pH 3, aqueous with cosolvent or surfactant or cyclodextrin, thermodynamic from solid, 59% w/v Poloxamer 188 in pH 3.0 buffer, pH after equilibration 3.30, read-out: Solubility Sample-2): 17.9 µg/mL
- solubility ([1]; citrate buffer, pH 3, aqueous buffer, thermodynamic from solid, pH 3.0 (Citrate buffer), read-out: Solubility Average (n = 2)): 7.77 µg/mL
- solubility ([1]; citrate buffer, pH 3, aqueous buffer, thermodynamic from solid, pH 3.0 (Citrate buffer), read-out: Solubility Sample-1): 7.76 µg/mL
- solubility ([1]; citrate buffer, pH 3, aqueous buffer, thermodynamic from solid, pH 3.0 (Citrate buffer), read-out: Solubility Sample-2): 7.78 µg/mL
- solubility ([1]; hydrochloric acid buffer, pH 1.2, simulated gastric fluid, thermodynamic from solid, pH 1.2 (Hydrochloric acid buffer), read-out: Solubility Average (n = 2)): 20.8 µg/mL
- solubility ([1]; hydrochloric acid buffer, pH 1.2, simulated gastric fluid, thermodynamic from solid, pH 1.2 (Hydrochloric acid buffer), read-out: Solubility Sample-1): 20.8 µg/mL
- solubility ([1]; hydrochloric acid buffer, pH 1.2, simulated gastric fluid, thermodynamic from solid, pH 1.2 (Hydrochloric acid buffer), read-out: Solubility Sample-2): 20.9 µg/mL
- solubility ([1]; pH 2, simulated gastric fluid, At pH 2, read-out: solubility): ~8.4 µg/mL
- solubility ([1]; pH 4, aqueous buffer, At pH 4, read-out: solubility): ~6.4 µg/mL
- solubility ([1]; pH 6, aqueous buffer, At pH 6, read-out: solubility): ~5 µg/mL
- solubility ([1]; water, In water, read-out: solubility): ~6 µg/mL
- solubility ([1]; water, in water, read-out: solubility): < 6 µg/mL
- solubility ([1]; water, pH 7.95, water, thermodynamic from solid, Water, pH after equilibration 7.95, read-out: Solubility Average (n = 2)): 5.99 µg/mL
- solubility ([1]; water, pH 7.95, water, thermodynamic from solid, Water, pH after equilibration 7.95, read-out: Solubility Sample-1): 6 µg/mL
- solubility ([1]; water, pH 7.95, water, thermodynamic from solid, Water, pH after equilibration 7.95, read-out: Solubility Sample-2): 5.97 µg/mL
- water uptake (Moisture sorption): about 1%
- d10 [2]: 2-5 μm
- d50 [2]: 10-30 μm
- d90 [2]: 35-55 μm
- degradation ([3]; In water): about 40%
- degradation ([3]; water with 2% w/v SLS): no (or minimal) degradation
- permeability [4]: low
- flow properties of the API [5]: poor flow properties
